Assay results taken from patent US20040076683A1, “Stealth lipid nanocapsules, methods for the preparation thereof, and use thereof as a carrier for active principle(s)” (ETHYPHARM, priority 2002, published 2004).

Assay: Solubility of paclitaxel and docetaxel in triglycerides
Assay type: physicochemical
Details: dissolved at 75 °C, no recrystallization at room temperature
Description: A solution of docetaxel or paclitaxel in triglycerides, which will constitute the inner core of the lipid nanocapsules, is prepared by dissolving the drug into the triglyceride at 75° C. The amount of drug is adjusted in order to obtain solutions that will not recrystallize upon cooling to room temperature.

[1] = in Labrafac CC (C8 content 56.7%)
[2] = in Miglyol 810 N (C8 content 70.4%)

| Compound | Solubility (% w/w) [1] [% w/w] | Solubility (% w/w) [2] [% w/w] | Solubility (% w/w) (in Tricaprylin (C8 >99%)) |
| --- | --- | --- | --- |
| CC(=O)O[C@@]12CO[C@@H]1C[C@H](O)[C@@]1(C)C(=O)[C@H](O)C3=C(C)[C@@H](OC(=O)[C@H](O)[C@@H](NC(=O)OC(C)(C)C)c4ccccc4)C[C@@](O)([C@@H](OC(=O)c4ccccc4)[C@H]21)C3(C)C [Docetaxel, docetaxel] | 2 | 3.9 | 7 |
| CC(=O)O[C@H]1C(=O)[C@@]2(C)[C@H]([C@H](OC(=O)c3ccccc3)[C@]3(O)C[C@H](OC(=O)[C@H](O)[C@@H](NC(=O)c4ccccc4)c4ccccc4)C(C)=C1C3(C)C)[C@]1(OC(C)=O)CO[C@@H]1C[C@@H]2O [Paclitaxel, paclitaxel] | 1.6 | 2.7 | 6 |
